Measured values taken from ChEMBL document CHEMBL1156324, “Purine derivatives as potent gamma-secretase modulators” (Bioorg Med Chem Lett, 2010).
pIC50: −log10 of the molar value.

How the values were obtained:
[1] = Activity at gamma-secretase expressed in human SH-SY5Y cells assessed as inhibition of amyloid beta 40 production by HTRF immunoassay; format: cell-based
[2] = Activity at gamma-secretase expressed in human SH-SY5Y cells assessed as inhibition of amyloid beta 42 production by HTRF immunoassay; format: cell-based
[3] = target: Gamma-secretase (Homo sapiens) (UniProt Q96BI3+Q9NZ42+Q8WW43+P49768+Q92542+P49810); test: Selectivity ratio, IC50 for human gamma-secretase-mediated Notch deltaE cleavage to IC50 for gamma-secretase-mediated amyloid beta 42 production; format: protein-complex assay
Gamma-secretase = test: Inhibition of gamma-secretase-mediated Notch deltaE cleavage in human HeLa cells by luciferase assay; format: cell-based
[4] = Drug level in APP-YAC transgenic mouse plasma at 100 mg/kg, po after 6 hrs; format: ADME, organism-based; set-up: dose 100 mg/kg, route oral; conditions: read-out: Drug uptake
[5] = Drug level in APP-YAC transgenic mouse brain at 100 mg/kg, po after 6 hrs; format: ADME, organism-based; set-up: dose 100 mg/kg, route oral; conditions: read-out: Drug uptake
Mus musculus = test: Inhibition of Abeta42 production in APP-YAC transgenic mouse brain at 100 mg/kg, po after 6 hrs; format: functional; conditions: read-out: INH

SMILES	pIC50 [1]	pIC50 [2]	Ratio IC50 [3]	pIC50 (Gamma-secretase)	concentration at 6 h [4] [µM]	concentration at 6 h [5] [µM]	inhibition in vivo at 100 mg/kg (Mus musculus) [%]
Cc1ccc(C(C)(C)C)cc1Nc1nc(N2CCC(n3ccnc3)CC2)nc2ncn(C)c12	5.80	6.47	–	–	–	–	–
Cc1ccc(C(C)(C)C)cc1Nc1nc(N2CCN(CC3CCOCC3)CC2)nc2ncn(C)c12	5.10	6.04	–	–	–	–	–
COc1ccc(N2CCN(c3nc(Nc4cc(C(C)(C)C)ccc4C)c4c(ncn4C)n3)CC2(C)C)cc1	6.46	7.68	> 2400	< 4.30	23	7.8	73
Cc1ccc(C(C)(C)C)cc1Nc1nc(N2CCC(c3ccccc3)C2)nc2ncn(C)c12 (centres undefined)	6.20	7.27	–	–	–	–	–
Cc1ccc(C(C)(C)C)cc1Nc1nc(N2CCC(Oc3ccncc3)CC2)nc2ncn(C)c12	7.24	8.03	–	–	–	–	–
Cc1ccc(C(C)(C)C)cc1Nc1nc(N2CCN(Cc3ccncc3)CC2)nc2ncn(C)c12	6.89	7.92	760	5.04	–	–	–
COc1ccc(NCCNc2nc(Nc3cc(C(C)(C)C)ccc3C)c3c(ncn3C)n2)cc1	5.96	6.30	–	–	–	–	–
COc1ccc(N2CCN(c3nc(Nc4cc(C(C)(C)C)ccc4C)c4[nH]ccc4n3)CC2(C)C)cc1	5.52	6.12	–	–	–	–	–
COc1ccc(N2CCN(c3nc(Nc4cc(C(C)(C)C)ccc4C)c4c(ncn4CC(F)(F)F)n3)CC2(C)C)cc1	6.38	7.26	–	–	–	–	–
Cc1ccc(C(C)(C)C)cc1Nc1nc(-c2ccc(Cc3ccncc3)cc2)nc2ncn(C)c12	5.96	6.10	–	–	–	–	–
COc1ccc(N2CCN(c3nc(Nc4cc(C(C)(C)C)ccc4C)c4ncn(C)c4n3)CC2(C)C)cc1	5.59	6.89	–	–	–	–	–
Cc1ccc(C(C)(C)C)cc1Nc1nc(NCCc2ccncc2)nc2ncn(C)c12	6.60	7.44	–	–	–	–	–
COc1ccc(N2CCN(c3nc(Nc4cc(C(C)(C)C)ccc4C)c4c(ncn4C)n3)CC2(C)C)cc1F	6.57	7.68	–	–	–	–	–
COc1ccc(N2CCN(c3nc(Nc4cc(C(C)(C)C)ccc4C)c4c(n3)nc(C(F)(F)F)n4C)CC2(C)C)cc1	6.00	7.30	> 1000	< 4.30	–	–	–
COCCCCN1CCN(c2nc(Nc3cc(C(C)(C)C)ccc3C)c3c(ncn3C)n2)CC1	5.33	6.06	–	–	–	–	–
CCc1ccc(N2CCN(c3nc(Nc4cc(C(C)(C)C)ccc4C)c4c(ncn4C)n3)CC2)cc1	5.41	6.09	–	–	–	–	–
COc1ccc(N2CCN(c3nc(Nc4cc(C(C)(C)C)ccc4C)c4c(n3)nc(C)n4C)CC2(C)C)cc1	6.80	7.66	420	5.04	–	–	–
COc1ccc(N2CCN(c3nc(Nc4cc(C(C)(C)C)ccc4C)c4[nH]cnc4n3)CC2(C)C)cc1	6.00	7.17	–	–	–	–	–
COc1ccc(N2CCN(c3nc(Nc4cc(C(C)(C)C)ccc4C)c4c(ncn4C)n3)CC2)cc1	6.14	7.41	> 1300	< 4.30	–	–	–
COc1ccc(N2CCN(c3nc(Nc4cc(C(C)(C)C)ccc4C)c4cccnc4n3)CC2(C)C)cc1	5.51	6.68	–	–	–	–	–
COc1ccc(N2CCCN(c3nc(Nc4cc(C(C)(C)C)ccc4C)c4c(ncn4C)n3)CC2)cc1	5.39	6.42	–	–	–	–	–
Cc1ccc(C(C)(C)C)cc1Nc1nc(N2CCC(Cc3ccncc3)CC2)nc2ncn(C)c12	6.51	7.52	–	–	–	–	–
Cc1ccc(C(C)(C)C)cc1Nc1nc(NCCc2cnn(C)c2)nc2ncn(C)c12	6.40	7.17	330	4.66	–	–	–
COc1ccc(N2CCN(c3nc(Nc4cc(C(C)(C)C)ccc4C)c4c(ncn4C(C)C)n3)CC2(C)C)cc1	6.46	7.30	–	–	–	–	–
COc1ccc(N2CCN(c3nc(Nc4cc(C(C)(C)C)ccc4C)cc(OC)n3)CC2(C)C)cc1	5.24	6.59	–	–	–	–	–
Cc1ccc(C(C)(C)C)cc1Nc1nc(N2CCC(c3ccncc3)CC2)nc2ncn(C)c12	5.74	6.46	–	–	–	–	–
Cc1cc(OC2CCN(c3nc(Nc4cc(C(C)(C)C)ccc4C)c4c(ncn4C)n3)CC2)ncn1	6.92	7.80	810	4.89	27	7.8	69
